Measured values reported in publication PMC6556873, “Rapid Covalent-Probe Discovery by Electrophile-Fragment Screening” (Journal of the American Chemical Society, 2019).
Like-named read-outs stand apart in the source and are kept apart here.

Columns and labels:
[1] = molecular target: T1, NUDT7 (Homo sapiens, UniProt P0C024); assay: intact protein LC/MS labeling; format: binding; details: covalent; 24 h, 4 °C, 2 μM protein, pools of five, pH 7.5
T1 construct: residues 14-235, E. coli, pNIC28-Bsa4, N-terminal His6 tag removed by TEV, construct 26672 Da
T1 sequence (P0C024 14-235): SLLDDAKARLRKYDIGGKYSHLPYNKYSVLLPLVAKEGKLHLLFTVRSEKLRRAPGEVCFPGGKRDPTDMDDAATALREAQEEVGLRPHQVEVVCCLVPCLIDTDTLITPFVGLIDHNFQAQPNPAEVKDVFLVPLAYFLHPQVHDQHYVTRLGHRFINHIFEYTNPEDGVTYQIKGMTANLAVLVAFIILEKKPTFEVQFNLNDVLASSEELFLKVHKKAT

[2] = molecular target: T2, BSA (Bos taurus, UniProt P02769); parameters: Intact protein LC/MS covalent labelling, fragments in pools of five, 200 uM each, 4 °C; details: 24 h, 4 °C, pool of five; 200 µM; covalent
T2 construct: gene ALB
T2 sequence (P02769 whole entry, the tested form may be a part): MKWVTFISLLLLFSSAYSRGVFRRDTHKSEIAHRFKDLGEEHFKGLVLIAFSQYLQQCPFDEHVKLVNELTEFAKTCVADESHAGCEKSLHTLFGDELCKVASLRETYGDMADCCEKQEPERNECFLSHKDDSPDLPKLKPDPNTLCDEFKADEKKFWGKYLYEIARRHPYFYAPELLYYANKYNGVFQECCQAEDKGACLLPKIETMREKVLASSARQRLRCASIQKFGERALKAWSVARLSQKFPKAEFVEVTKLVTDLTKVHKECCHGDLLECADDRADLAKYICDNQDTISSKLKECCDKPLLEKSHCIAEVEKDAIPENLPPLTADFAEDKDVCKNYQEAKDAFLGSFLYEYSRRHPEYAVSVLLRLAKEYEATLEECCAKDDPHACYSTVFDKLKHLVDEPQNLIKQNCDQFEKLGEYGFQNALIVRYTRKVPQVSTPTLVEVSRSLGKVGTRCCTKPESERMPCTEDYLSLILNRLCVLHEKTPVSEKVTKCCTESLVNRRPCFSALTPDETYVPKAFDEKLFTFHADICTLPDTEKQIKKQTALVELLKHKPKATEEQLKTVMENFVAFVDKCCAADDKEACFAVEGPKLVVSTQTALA

[3] = molecular target: T1, NUDT7; parameters: Intact protein LC/MS covalent labelling, fragments in pools of five, 200 uM each, 4 °C; details: 24 h, 4 °C, pool of five; 200 µM; covalent
[4] = molecular target: T3, OTUB2 (OTUB2A) (Homo sapiens, UniProt Q96DC9); parameters: Intact protein LC/MS covalent labelling, fragments in pools of five, 200 uM each, 4 °C; details: 24 h, 4 °C, pool of five; 200 µM; covalent
T3 construct: full length residues 1-234, E. coli BL21(DE3)-R3, His tag removed by TEV, construct 27312 Da
T3 sequence (Q96DC9 1-234): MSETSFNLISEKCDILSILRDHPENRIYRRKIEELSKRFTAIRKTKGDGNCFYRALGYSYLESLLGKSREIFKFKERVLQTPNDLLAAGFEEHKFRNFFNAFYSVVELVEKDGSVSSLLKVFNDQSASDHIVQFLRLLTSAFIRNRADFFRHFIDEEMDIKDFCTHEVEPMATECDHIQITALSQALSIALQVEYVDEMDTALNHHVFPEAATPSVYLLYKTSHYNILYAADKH

[5] = molecular target: T4, PCAF (Homo sapiens, UniProt Q92831); parameters: Intact protein LC/MS covalent labelling, fragments in pools of five, 200 uM each, 4 °C; details: 24 h, 4 °C, pool of five; 200 µM; covalent
T4 construct: gene KAT2B
T4 sequence (Q92831 whole entry, the tested form may be a part): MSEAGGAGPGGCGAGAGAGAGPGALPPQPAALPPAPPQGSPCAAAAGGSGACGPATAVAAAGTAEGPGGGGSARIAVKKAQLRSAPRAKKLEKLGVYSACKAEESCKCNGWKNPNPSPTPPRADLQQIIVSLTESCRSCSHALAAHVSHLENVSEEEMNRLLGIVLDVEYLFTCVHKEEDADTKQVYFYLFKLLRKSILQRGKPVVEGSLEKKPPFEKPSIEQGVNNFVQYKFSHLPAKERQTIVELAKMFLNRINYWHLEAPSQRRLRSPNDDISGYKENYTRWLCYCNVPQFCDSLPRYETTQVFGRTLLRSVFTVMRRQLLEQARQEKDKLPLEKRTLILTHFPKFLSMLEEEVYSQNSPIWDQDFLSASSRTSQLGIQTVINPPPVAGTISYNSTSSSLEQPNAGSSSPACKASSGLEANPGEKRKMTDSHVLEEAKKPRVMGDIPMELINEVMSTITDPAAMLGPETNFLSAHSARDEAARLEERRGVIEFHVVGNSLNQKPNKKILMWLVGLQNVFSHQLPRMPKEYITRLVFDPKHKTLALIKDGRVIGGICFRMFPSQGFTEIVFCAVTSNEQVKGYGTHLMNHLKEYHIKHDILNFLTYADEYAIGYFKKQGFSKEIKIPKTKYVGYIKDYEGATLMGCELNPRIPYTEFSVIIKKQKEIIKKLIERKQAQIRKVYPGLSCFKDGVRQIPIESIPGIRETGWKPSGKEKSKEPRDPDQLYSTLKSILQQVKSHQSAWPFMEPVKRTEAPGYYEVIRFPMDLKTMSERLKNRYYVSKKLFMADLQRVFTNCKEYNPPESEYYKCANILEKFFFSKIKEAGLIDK

[6] = in vitro; parameters: species or system CCD841, HEK293; details: human, hb2 cells, read-out: HB-2 Cells Viability (%)
[7] = in vitro; parameters: species or system HB2, HEK293; details: human, ccd841 cells
[8] = in vitro; parameters: species or system HB2, CCD841; details: human, hek293 cells
[9] = molecular target: T5, NNMT (hNNMT) (Homo sapiens, UniProt P40261); parameters: Intact protein LC/MS covalent labelling, fragments in pools of five, 200 uM each, 4 °C; details: 24 h, 4 °C, pool of five; 200 µM; covalent
T5 construct: wild type, N-terminal His6 tag kept (no cleavage described), E. coli, construct 31248 Da
T5 sequence (P40261 1-264): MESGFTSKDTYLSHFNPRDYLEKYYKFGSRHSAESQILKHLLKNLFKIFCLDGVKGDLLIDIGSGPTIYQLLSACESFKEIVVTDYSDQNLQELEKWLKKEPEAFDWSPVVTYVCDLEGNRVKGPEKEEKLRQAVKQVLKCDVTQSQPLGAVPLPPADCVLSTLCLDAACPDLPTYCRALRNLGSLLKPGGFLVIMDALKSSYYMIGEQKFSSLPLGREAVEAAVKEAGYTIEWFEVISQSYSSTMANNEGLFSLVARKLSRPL

Row | % labeling at 200 μM [1] | BSA [2] | NUDT7 [3] | OTUB2 [4] | PCAF [5] | NNMT [9] | SMILES | viability at 48 h, 10 µM [6] | viability at 48 h, 10 µM [7] | viability at 48 h, 10 µM [8]
1 | 100% | 0 | 1 | 0 | 0 | 0 | COc1ccc(C2CCCN2C(=O)CCl)cc1 (stereo not shown) [PCM-0102938] | 12% | 24.3% | 6.4%
2 | – | 0 | 0 | 1 | 0 | 0 | CCc1sc(C(=O)NNC(=O)CCl)cc1C [PCM-0103009] | 70.4% | 68.3% | 73.2%
3 | – | 0 | 0 | 0.09 | 0 | 0.13 | CCOC(=O)C1CCCN(C(=O)CCl)C1 (stereo not shown) [PCM-0103015] | 104% | 98.8% | 98.8%
4 | – | 0.19 | 0 | 0 | 0 | 0.19 | Cl.O=C(CCl)Nc1ccc(Cl)cn1 [PCM-0103036] | 98.5% | 96.4% | 113%
5 | – | 0 | 0 | 0.36 | 0 | 0 | CC(C)(C)n1ncc2c1CCCC2NC(=O)CCl.Cl (stereo not shown) [PCM-0103046] | 81.5% | 90.9% | 89.3%
6 | – | 0 | 0 | 0.43 | 0 | 0 | O=C(CCl)NCc1cccc(F)c1 [PCM-0103047] | 83.7% | 69.7% | 88.1%
7 | – | 0 | 0.13 | 0.84 | 0 | 0 | O=C(CCl)NCc1cc(Br)cs1 [PCM-0103050] | 87% | 75.7% | 53.1%
8 | – | 0 | 0 | 0 | 0 | 0.23 | Cl.O=C(CCl)NC1CCN(C2CC2)CC1 [PCM-0103055] | 98.2% | 83% | 92.7%
9 | – | 0 | 0 | 0 | 0 | 0 | CC1(C)CCCN1C(=O)CCl [PCM-0103060] | 104% | 92.4% | 74.5%
10 | – | 0 | 0 | 0 | 0 | 0 | O=C(CCl)N(C1CCCC1)C1CC1 [PCM-0103064] | 102% | 87.8% | 74%
11 | – | 0 | 0 | 0 | 0 | 0 | O=C(CCl)NCC1CCC1 [PCM-0103065] | 104% | 108% | 104%
12 | – | 0.21 | 0 | 0.55 | 0 | 0 | Cc1ccsc1CNC(=O)CCl [PCM-0103075] | 96.1% | 76.7% | 83.8%
13 | – | 0 | 0 | 0.11 | 0 | 0.16 | O=C(CCl)Nc1nc(C2CC2)no1 [PCM-0103076] | 104% | 102% | 97.9%
14 | – | 0 | 0 | 0.3 | 0 | 0 | O=C(CCl)Nc1ccon1 [PCM-0103077] | 77.3% | 61.1% | 64.8%

The remaining lines, values behind:

Row | SMILES | % labeling at 200 μM [1] | BSA [2] | NUDT7 [3] | OTUB2 [4] | PCAF [5] | NNMT [9] | viability at 48 h, 10 µM [6] | viability at 48 h, 10 µM [7] | viability at 48 h, 10 µM [8]
15 | O=C(CCl)N1CCCC1c1ccc2c(c1)OCCO2 (stereo not shown) [PCM-0102298] | 100% | 0 | 1 | 0 | 0 | – | 5.3% | 21.6% | 4.5%
16 | O=C(CCl)N1CCCC1c1ccc2c(c1)OCCCO2 (stereo not shown) [PCM-0102512] | 88% | 0 | 0.88 | 0 | 0 | – | 8.3% | 19.7% | 3.8%
17 | Cl.O=C(CCl)N1CCN(Cc2ccco2)CC1 [PCM-0103006] | – | 0 | 0 | 0 | 0 | 0 | 88.6% | 85% | 65.7%
18 | CS(=O)(=O)c1ccc(F)c(NC(=O)CCl)c1 [PCM-0103018] | – | 0 | 0 | 0.16 | 0 | 0 | 57.6% | 53.6% | 24.3%
19 | CC(C)N(C(=O)CCl)C(C)C [PCM-0103023] | – | 0 | 0 | 0 | 0 | 0 | 102% | 106% | 110%
20 | Cc1ccc(NC(=O)CCl)c(F)c1 [PCM-0103028] | – | 0.18 | 0 | 0.14 | 0 | 0.23 | 42.3% | 58.4% | 29%
21 | CC(NC(=O)CCl)c1ccc(F)cc1F (stereo not shown) [PCM-0103035] | – | 0 | 0.15 | 0.34 | 0 | 0.58 | 77.6% | 78.2% | 66.4%
22 | COC(=O)c1cccc(NC(=O)CCl)c1 [PCM-0103048] | – | 0 | 0 | 0.87 | 0 | 0.2 | 17.7% | 34.7% | 5.1%
23 | Cc1cc(NC(=O)CCl)n(-c2ccccc2F)n1 [PCM-0103066] | – | 0 | 0 | 0.44 | 0 | 0 | 64% | 65.3% | 36%
24 | COc1cccc2sc(NC(=O)CCl)nc12.Cl [PCM-0103067] | – | 0 | 1 | 0.16 | 0 | 1 | 32.2% | 48.9% | 47.6%
25 | O=C(CCl)Nc1cccc(C(=O)N2CCSCC2)c1 [PCM-0103072] | – | 0 | 0 | 0 | 0 | 0 | 34.5% | 55.2% | 7.8%
26 | C=CC(=O)NCc1cc(F)c(C(F)(F)F)cc1F [PCM-0103078] | – | 0 | 0 | 0 | 0 | 0.2 | 101% | 96.9% | 88.4%
27 | CN(Cc1cc(Br)cs1)C(=O)CCl [PCM-0103081] | – | 0 | 0 | 0 | 0 | 0 | 5.1% | 45.5% | 11.9%
